Results reported in PMC4335544 (Critical Care, 2015).

Key:
[1] = Spontaneous drug degradation in control polypropylene tubes (whole blood); assay type: in vitro ADME; conditions: human whole blood, polypropylene tubes under agitation at 25°C, up to 48 hours; HPLC-UV or immuno-enzymatic method
[2] = octanol/water; ref 13-16 (Drug Bank); cited from earlier work
[3] = 37°C, 4.5 L/minute
Description: Whole ECMO circuits (Maquet®, Orleans, France) comprising a Quadrox® membrane oxygenator, a centrifugal pump, a heat exchanger and PVC tubing were used for ex vivo tests. All components of the circuit were treated with heparin (Bioline coating®, Maquet). Drug-free human whole blood (800 mL) was used to prime the circuit. In order to replicate the in vivo operating conditions, the temperature of the circulating blood was set at 37°C and circuit flow rate at 4.5 L/minute.
During ex vivo ECMO runs, serial post-membrane blood samples were obtained at 30 minutes, 1 hour, 2 hours, 3 hours, 4 hours, 5 hours, 24 hours and 48 hours after drug introduction into the circuit. Until analysis, samples were kept at 4°C and plasma separated and frozen at −20°C. To determine spontaneous drug degradation, blood containing identical concentrations of the drugs studied was kept in polypropylene tubes under agitation at 25°C for the same time before measurements.
Propofol and midazolam concentrations were measured using high performance liquid chromatography with an ultra-violet detector (Waters, Milford, MA, USA).
Changes of mean drug concentrations over time were compared between control and experimental conditions by modeling using a linear mixed effect model. […] Model choice was guided by the lowest Akaike criteria value. The mixed effect model was then fitted with R software version 3.0.2 and the ‘nlme’ library [10].

[4] = Protocol: To further explore the role of temperature, oxygen exposure and PVC surfaces on propofol loss in the ECMO circuit, the following experiments were conducted. A polypropylene tube containing human whole blood was spiked with the propofol stock solution to obtain a concentration of […]. The effect of the temperature, oxygen exposure and contact with PVC surfaces were assessed by incubating the tube at 37°C, applying oxygen (1 L/minute) for 10 seconds to the preparation and by distributing the preparation into 5-cm PVC tubes, respectively. Polypropylene tubes containing blood and propofol at the same concentration were stored at room temperature and were used as controls. Propofol concentrations were measured at 0 minutes, 5 minutes, 10 minutes, 15 minutes, 20 minutes, 25 minutes, 30 minutes and 45 minutes from each preparation. These experiments were conducted in triplicate.
[5] = cited from earlier work
Description: Vancomycin, which is the drug of choice for treating beta-lactam resistant Gram-positive bacteria, is frequently prescribed to ECMO patients.

Compound | concentration over time in control polypropylene tubes [1] | Partition coefficient (log P) [2] | baseline concentration detected in ECMO circuit ([3]; at 30 minutes, human whole blood, HPLC-UV, mean of n = 3 circuits) [%] | baseline concentration remaining in ECMO circuit ([3]; at 24 hours, human whole blood, midazolam HPLC-UV, cyclosporine immuno-enzymatic method, mean of n = 3 circuits) [%] | loss of propofol on contact with PVC tubing ([4]; after 45 minutes, human whole blood distributed into 5-cm PVC tubes, propofol 2 μg/L as printed, mean of n = 3) [%] | loss of propofol on oxygen exposure ([4]; after 45 minutes, human whole blood in polypropylene tube, oxygen 1 L/minute for 10 seconds, propofol 2 μg/L as printed, mean of n = 3) [%] | effect of heating to 37°C on propofol concentration ([4]; polypropylene tube with human whole blood at 37°C, up to 45 minutes, n = 3) | baseline concentration lost in ECMO circuit ([3]; 30 minutes after introduction, Maquet circuit, Quadrox oxygenator, PVC tubing, heparin coating, 800 mL human whole blood, propofol 2 μg/mL, HPLC-UV, mean of n = 3 circuits) [%] | initial concentration remaining in ECMO circuit ([3]; after 5 hours, human whole blood, HPLC-UV, mean of n = 3 circuits) [%] | fraction remaining in ECMO circuit ([3]; beyond 24 hours, human whole blood, HPLC-UV, n = 3 circuits) | concentration in ECMO circuit, result in words ([3]; during the 48 hours of the protocol, human whole blood, immuno-enzymatic method, n = 3 circuits) | decrease in concentration, used circuit ([5]; circuit which had been running for five days, ref 3 (Dagan et al.)) [%] | decrease in concentration, new circuit ([5]; drug introduced in a new circuit, ref 3 (Dagan et al.)) [%] | levels in ECMO circuit, result in words ([5]; ex vivo models, 24 hours, ref 20 (Mehta et al.), ref 19 (Shekar et al.)) | decrease in concentration, neonatal and pediatric circuits ([5]; neonatal and pediatric circuits, ref 6 (Wildschut et al.))
Cc1ncc2n1-c1ccc(Cl)cc1C(c1ccccc1F)=NC2 [Midazolam] | remained stable | 3.9 | 54 | 11 | – | – | – | – | – | – | – | – | – | – | –
CC(C)c1cccc(C(C)C)c1O [Propofol] | remained stable | 4.0 | – | – | 85 | 70 | no effect | 70 | 11 | negligible | – | – | – | – | –
Vancomycin | remained stable | – | – | – | – | – | – | – | – | – | remained stable | 11 | 36 | remained unchanged | up to 46%
